Earlier results, collected in patent US20100080856A1, “Method and composition for postoperative wound healing” (priority 2008, published 2010).

Test system: wound healing in severe burn patients
Details: oral administration, Crit Care Med. 2000, Vol 28, No. 6, 1772-1776

In the case of `NCCC[C@H](N)C(=O)O.NCCC[C@H](N)C(=O)O.O=C(O)CCC(=O)C(=O)O` [ornithine α-ketoglutarate], the wound healing time is given as “shortens the wound healing time”.
